Assay results as given in PMC12346198 (Cancers, 2025).
pIC50: −log10 of the molar value. Counter-ions that a name gives are not always drawn. Like-named read-outs stand apart in the source and are kept apart here.

How the values were obtained:
[1] = system: HepG2; test: CCK-8 cytotoxicity assay, HepG2; type: cell-based, human; details: Homo sapiens, HepG2, 72 h, 72 h treatment
Protocol: (§1) The cytotoxicity of compounds was determined by the CCK-8 assay (Cell Counting Kit-8, CK04, Dojindo Molecular Technologies, Kumamoto, Japan). Cell lines were plated at 10,000 cells/well in 96-well plates and incubated overnight to allow for adherence (5% CO2, 37 °C). […] Cells were placed back in the incubator for 72 h treatment. CCK-8 reagent was added, and plates were further incubated 1–4 h as directed by the supplier’s instructions. Optical density was measured using a Biotek Synergy H1 plate reader at 450 nm. Primary hepatocytes were plated at 30,000 cells or 50,000 cells/well and maintained according to the technical information bulletin provided by the supplier. Upon treatment, maintenance media were supplemented with 10% FBS and fresh test compound for all subsequent media changes, as directed.

[2] = system: SNU475; test: CCK-8 cytotoxicity assay, SNU475; type: cell-based, human; details: 72 h treatment
Protocol: as §1

[3] = system: SNU423; test: CCK-8 cytotoxicity assay, SNU423; type: cell-based; details: Homo sapiens, SNU-423, 72 h treatment
Protocol: as §1

[4] = system: THLE-2; test: CCK-8 cytotoxicity assay, THLE-2; type: cell-based; details: Homo sapiens, 72 h treatment
Protocol: as §1

[5] = system: Primary Male Hepatocytes; test: CCK-8 cytotoxicity assay, primary male hepatocytes; type: cell-based; details: Hepatocyte, 72 h, 72 h treatment
Protocol: as §1

[6] = cited from earlier work
[7] = Single-dose IV and PO pharmacokinetics in mice; type: in vivo, male C57BL/6 mice; details: for Oral bioavailability compared to parent compound: Figure S5D; for Expected plasma levels for up to 8 h post-dose: linearly scaled from PK data, BID 75 mg/kg niclosamide, 105.7 mg/kg valine–niclosamide, 87.3 mg/kg valine–compound #7, 62.9 mg/kg compound #7; for AUC: analyte = dosed compound; for Cmax: read-out: Cmax, Geo Mean; for Tmax: read-out: Tmax, Geo Mean; for clearance: single IV dose, 2 mg/kg or molar equivalent, read-out: Systemic clearance following an IV dose (converted)
Protocol: The in-life study and quantitative analysis of plasma samples using LC/MS were performed at Charles River Laboratories, Inc. (Wilmington, MA, USA).

[8] = Two-week tolerability study; details: daily PO for 14 days
Protocol: Mice were group-housed under conditions of a constant photoperiod (12 h light/12 h dark), temperature, and humidity with ad libitum access to water and standard pelleted chow. […] Control mice were treated with the vehicle (DMSO–Cremophor EL–water, 3:15:82 by volume). Treatments were administered PO by gavage once daily for 14 days. Mouse weights were measured every 2 days. At the study endpoint, mice were euthanized approximately 2–4 h after the last dose. Blood was collected by cardiac puncture immediately after CO2 euthanasia. At necropsy, carcasses were examined for grossly visible lesions, and organ weights were measured (liver, kidneys, spleen, urogenital tract, testes, heart, lungs, brain). Whole blood and serum were submitted to the Comparative Pathology and Digital Imaging Shared Resource at the Ohio State Comprehensive Cancer Center (OSUCCC, Columbus, OH, USA) for the determination of complete blood counts and serum chemistry.

[9] = Pharmacokinetic modeling of valine pro-drug conversion to parent; type: in vivo, mice; details: for k el: C57BL/6, mouse, plasma, model estimate, read-out: Kel, elimination rate constant of valine conjugate (converted); for Kmet, rate constant of conversion to parent compound: Kmet = Fm × Kel; for Fraction of pro-drug converted to parent (Fm): two-compartment model estimate
Source text: A total of 36 mice with available PK data were included for non-linear mixed-effects analysis using NONMEM (version 7.5.0, ICON Development Solutions, Ellicott City, MD, USA), implementing the first-order conditional estimation with interaction (FOCE-I). R (version 4.2.0, R Foundation for Statistical Computing, Vienna, AUT, http://www.r-project.org) was used for visual diagnostics. […] The analyte (valine conjugate and parent compound) plasma concentration–time data were confirmed to have a biphasic distribution and elimination and were therefore fit separately to a linear two-compartment model with a depot for oral administration. Each model was parametrized in terms of clearance (CL), the volume of distribution of the central compartment (V1), intercompartmental clearance (Q), and the volume of the peripheral compartment (V3). Interindividual variability (IIV) for each parameter was assumed to be log-normally distributed, and residual variability (RUV) was described with a proportional error model. The PK parameter estimates from these independent models (parent compound or valine conjugate) were used as initial estimates for a combined model describing the conversion and disposition of the valine conjugate to the parent drug and associated metabolites. The model estimated the fraction of pro-drug converted to parent drug (Fm), which was used to calculate the first-order rate constant of metabolite formation (Kmet) = Fm × Kel. This rate constant was used to calculate the half-life of the conversion process and the amount of metabolite formed at complete conversion. The rate of metabolite formation was then calculated as the ratio of the amount of metabolite formed to the time required for complete conversion (~5 half-lives), as detailed in Figures S8–S11.

[10] = system: SNU475 cells; test: Hollow fiber assay (HFA) model of AR-SV HCC; type: in vivo; details: for Cell viability within hollow fibers (MTT assay): nude mice
Source text: The hollow fiber procedures were based upon those developed by Hollingshead et al. with technical consultation kindly provided by Drs. Joanna Burdette and Dan Lantvit (University of Illinois Chicago, Chicago, IL, USA). […] In order to utilize a PO dosing approach with the HFA, we extended the traditional HFA timeline to establish angiogenesis, as noted in the literature. […] Hollow fibers (KrosFlo Implant Membranes, M138615, Repligen, Waltham, MA, USA) were filled with 3 × 10^6 SNU475 cells/mL per length and heat-sealed into 2 cm lengths on Day −1. On Day 0, three fibers were implanted into 20-week-old male outbred homozygous athymic nude mice (Foxn1^nu/Foxn1^nu, The Jackson Laboratory, Bar Harbor, ME, USA) subcutaneously parallel to the spine. Following a 14-day waiting period to allow for angiogenesis around the fibers, treatment was initiated. […] On Day 21, mice were euthanized and hollow fibers were explanted. The MTT assay was performed according to the KrosFlo Implant Membrane protocol utilizing Thiazolyl Blue Tetrazolium Bromide (M2128, MilliporeSigma, Burlington, MA, USA).

[11] = IV, 2 mg/kg (valine conjugates 2 mg/kg EQV)
[12] = IV, 2 mg/kg (valine conjugates 2 mg/kg EQV), non-compartmental analysis
[13] = PO, 40 mg/kg (valine conjugates 40 mg/kg EQV)
[14] = male, C57BL/6, mouse, plasma, iv, 2 mg/kg, IV, 2 mg/kg (valine conjugates 2 mg/kg EQV), non-compartmental analysis, read-out: AUCall, Geo Mean
[15] = male, C57BL/6, mouse, plasma, iv, 2 mg/kg, IV, 2 mg/kg (valine conjugates 2 mg/kg EQV)
[16] = male, C57BL/6, mouse, plasma, po, 40 mg/kg, PO, 40 mg/kg (valine conjugates 40 mg/kg EQV), non-compartmental analysis, read-out: AUCall, Geo Mean
[17] = male, C57BL/6, mouse, plasma, po, 40 mg/kg, PO, 40 mg/kg (valine conjugates 40 mg/kg EQV)
[18] = male, C57BL/6, mouse, plasma, po, 40 mg/kg, single PO dose, 40 mg/kg or molar equivalent, read-out: AUCall following an oral dose
[19] = male, C57BL/6, mouse, plasma, IV, 2 mg/kg (valine conjugates 2 mg/kg EQV)
[20] = male, C57BL/6, mouse, plasma, PO, 40 mg/kg (valine conjugates 40 mg/kg EQV)
[21] = BID PO one week, niclosamide 75, valine–niclosamide 106.1, valine–compound #7 87.3, compound #7 62.9 mg/kg

COc1cc2nccc(Oc3ccc(NC(=O)NC4CC4)c(Cl)c3)c2cc1C(N)=O [Lenvatinib, lenvatinib]
pIC50 [1]: < 4.52
pIC50 ([2]; Homo sapiens, SNU-475, 72 h): 4.89
pIC50 [3]: < 4.52
pIC50 [4]: 4.60
pIC50 [5]: < 4.52

O=C(Nc1ccc([N+](=O)[O-])cc1Cl)c1cc(Cl)ccc1O [NEN, niclosamide ethanolamine salt]
Plasma niclosamide concentration 4 h after oral administration ([6]; 40 mg/kg dose PO): roughly 0.72 µM
Improvement of plasma niclosamide concentration over niclosamide ([6]; 4 h after oral administration): more than seven-fold

CC(C)[C@H](N)C(=O)Oc1ccc(Cl)cc1C(=O)Nc1ccc([N+](=O)[O-])cc1Cl [valine–niclosamide]
Oral bioavailability compared to parent compound [7]: significantly higher oral bioavailability
HL_Lambda_z, Geo Mean [7, 11]: 1.54 h
IV: Clobs, Geo Mean [7, 12]: 0.02 L/h
Fold improvement in Cmax over orally administered niclosamide ([7]; PO): 6.8 fold
Fold increase in systemic exposure over orally administered niclosamide ([7]; PO): 14.9 fold
HL_Lambda_z, Geo Mean [7, 13]: 4.11 h
PO: Cl_Fobs, Geo Mean [7, 13]: 0.05 L/h
Fold increase in plasma levels at 4 h over niclosamide ([7]; PO, molar equivalent of 40 mg/kg): more than 16 fold
Expected plasma levels for up to 8 h post-dose [7]: ~3.5 µM
AUC [7, 14]: 7.52 µM·h
Cmax [7, 15]: 11.2 µM
AUC [7, 16]: 48.6 µM·h
Cmax [7, 17]: 11.2 µM
AUC [7, 18]: 48.6 µM·h
concentration at 4 h ([7]; male, C57BL/6, mouse, plasma, po, 40 mg/kg, read-out: Plasma level at 4 h after a molar equivalent oral dose): 3.59 µM
Tmax [7, 19]: 4.8 min
Tmax [7, 20]: 40.2 min
clearance ([7]; male, C57BL/6, mouse, plasma): 0.333 mL/min
Impact on body weight ([8]; 14.1, 56.4, 141.0 mg/kg): no significant impact
Impact on liver enzyme levels ([8]; ALT, AST, albumin): no significant impact
Spleen weights as a percentage of body weight ([8]; versus vehicle): increase at the highest dose level
k el [9]: 0.000789 s⁻¹
Kmet, rate constant of conversion to parent compound [9]: 0.64 h⁻¹
Fraction of pro-drug converted to parent (Fm) [9]: 23%
Cell viability within hollow fibers (MTT assay) [10, 21]: no differences in cell viability

CNC(=O)c1cc(Oc2ccc(NC(=O)Nc3ccc(Cl)c(C(F)(F)F)c3)cc2)ccn1 [Sorafenib, sorafenib]
pIC50 [1]: 4.97
pIC50 [2]: 5.38
pIC50 ([2]; Homo sapiens, SNU-475, 72 h): 5.40
pIC50 [3]: 5.21
pIC50 [4]: < 4.52
pIC50 [5]: 5.29

CNC(=O)c1ccc(N2C(=S)N(c3ccc(C#N)c(C(F)(F)F)c3)C(=O)C2(C)C)cc1F [Enzalutamide, enzalutamide]
pIC50 [5]: < 4.52

CNC(=O)c1cc(Oc2ccc(NC(=O)Nc3ccc(Cl)c(C(F)(F)F)c3)c(F)c2)ccn1 [Regorafenib, regorafenib]
pIC50 [1]: 4.92
pIC50 [2]: 5.79
pIC50 ([2]; Homo sapiens, SNU-475, 72 h): 5.80
pIC50 [3]: 5.26
pIC50 [4]: < 4.52
pIC50 [5]: < 4.52

CC(C)[C@H](N)C(=O)Oc1ccc(Cl)cc1C(=O)Nc1ccc(C(F)(F)F)cc1Cl [valine–compound #7]
Oral bioavailability compared to parent compound [7]: this was not observed
HL_Lambda_z, Geo Mean [7, 11]: 4.20 h
IV: Clobs, Geo Mean [7, 12]: 0.01 L/h
HL_Lambda_z, Geo Mean [7, 13]: 6.46 h
PO: Cl_Fobs, Geo Mean [7, 13]: 0.05 L/h
Expected plasma levels for up to 8 h post-dose [7]: 3.7 µM
AUC [7, 14]: 13.5 µM·h
Cmax [7, 15]: 10.1 µM
AUC [7, 16]: 62.1 µM·h
Cmax [7, 17]: 7.71 µM
AUC [7, 18]: 62.1 µM·h
Tmax [7, 19]: 4.8 min
Tmax [7, 20]: 75.6 min
clearance ([7]; male, C57BL/6, mouse, plasma): 0.167 mL/min
k el [9]: 0.00147 s⁻¹
Kmet, rate constant of conversion to parent compound [9]: 1.32 h⁻¹
Fraction of pro-drug converted to parent (Fm) [9]: 25%
Toxicity in HFA study mice ([10]; 87.3 mg/kg BID PO, two mice excluded): apparent toxicity
Cell viability within hollow fibers (MTT assay) [10, 21]: no differences in cell viability

CC(=O)O[C@H]1C(=O)[C@@]2(C)[C@H]([C@H](OC(=O)c3ccccc3)[C@]3(O)C[C@H](OC(=O)[C@H](O)[C@@H](NC(=O)c4ccccc4)c4ccccc4)C(C)=C1C3(C)C)[C@]1(OC(C)=O)CO[C@@H]1C[C@@H]2O [PTX, Paclitaxel, reference compound]
Cell viability within hollow fibers (MTT assay) ([10]; 25 mg/kg IP every other day for one week): significant decrease in cell viability
